# Experimental data taken from patent US20060052409A1, “Therapeutic or preventive agent for nausea/vomiting” (priority 2002, published 2006).
# Key:
# [1] = test system: morphine-induced nausea and vomiting; experiment: Morphine-induced nausea and vomiting in beagles; format: in vivo; settings: male beagles; for Anti-emetic effect of test compounds: dose at which the test compounds inhibited nausea and vomiting due to morphine: test compound i.v. 15 minutes before morphine 0.5 mg/kg i.v., observed for ten minutes
# Description: Male beagles were used for the experiment. Frequencies of nausea and vomiting were visually observed for ten minutes after the administration of morphine.
# Morphine (0.5 mg/kg) was intravenously administered into the foreleg of male beagles. […] The test compounds were intravenously administered into the foreleg 15 minutes before the administration of morphine.
# [2] = test system: nausea and vomiting due to morphine; settings: literature report; cited from earlier work
# [3] = test system: morphine-induced nausea and vomiting; experiment: Morphine-induced nausea and vomiting in ferrets; format: in vivo; settings: male ferrets; morphine 0.1-3 mg/kg s.c.; observed for one hour
# Description: Male ferrets were used for the experiment. Frequencies of nausea and vomiting were visually observed from immediately after the administration of morphine to one hour after the administration.
# Morphine (0.1-3 mg/kg) was subcutaneously administered to male ferrets. […] The inhibitory effects of NTI on nausea and vomiting due to morphine were then studied. NTI (5 mg/kg) was subcutaneously administered 30 minutes before the administration of morphine (0.6 mg/kg).
SMILES,Anti-emetic effect of test compounds: dose at which the test compounds inhibited nausea and vomiting due to morphine [1] [mg/kg],further results
"C[S+]([O-])c1cccc2c3c([nH]c12)[C@@H]1Oc2c(O)ccc4c2C12CCN(CC1CC1)[C@H](C4)[C@]2(O)C3 (stereo partly drawn) [Compound 2, 17-(cyclopropylmethyl)-6,7-didehydro-4,5α-epoxy-3,14β-dihydroxy-7′-methylsulfinyl-6,7-2′,3′-indolomorphinan]",1.0,–
"Oc1ccc2c3c1O[C@H]1c4c(c5cc(F)cc6c5n4CCC6)C[C@@]4(O)[C@@H](C2)N(CC2CC2)CCC314 [Compound 3, 17-(cyclopropylmethyl)-6,7-didehydro-4,5α-epoxy-3,14β-dihydroxy-1′,7′-trimethylene-5′-fluoro-6,7-2′,3′-indolomorphinan]",1.0,–
"Cn1c2c(c3ccc4c(c31)CCCC4)C[C@@]1(O)[C@H]3Cc4ccc(O)c5c4C1(CCN3CC1CC1)[C@H]2O5 [Compound 4, 17-(cyclopropylmethyl)-6,7-didehydro-4,5α-epoxy-3,14β-dihydroxy-6′,7′-cyclohexeno-1′-methyl-6,7-2′,3′-indolomorphinan]",3.0,–
"Oc1ccc2c3c1O[C@H]1c4nc5ccccc5cc4C[C@@]4(O)[C@@H](C2)N(CC2CC2)CCC314 [Compound 5, 17-(cyclopropylmethyl)-6,7-didehydro-4,5α-epoxy-3,14β-dihydroxy-6,7-2′,3′-quinolinomorphinan]",1.0,–
"Cc1c2c(nc3ccccc13)[C@@H]1Oc3c(O)ccc4c3C13CCN(CC1CC1)[C@H](C4)[C@]3(O)C2 [Compound 6, 17-(cyclopropylmethyl)-6,7-didehydro-4,5α-epoxy-3,14β-dihydroxy-6,7-2′,3′-(4′-methylquinolino)morphinan]",3.0,–
"O=C1/C(=C/c2ccccc2)C[C@@]2(O)[C@H]3Cc4ccc(O)c5c4[C@@]2(CCN3CC2CC2)[C@H]1O5 [Compound 7, 7-benzylidene-17-(cyclopropylmethyl)-4,5α-epoxy-3,14β-dihydroxy-6-oxomorphinan]",1.0,–
C=CCN(CC=C)[C@@H](Cc1ccc(O)cc1)C(=O)NCC(=O)NCCS[C@@H](Cc1ccccc1)C(=O)N[C@@H](CC(C)C)C(=O)O [ICI-154129],–,Anti-emetic effect against nausea and vomiting due to morphine [2]: cannot inhibit vomiting due to morphine
"CN1CC[C@]23c4c5ccc(O)c4O[C@H]2[C@@H](O)C=C[C@H]3[C@H]1C5 [Morphine, morphine, reference compound]",–,Induction of nausea and vomiting [3]: remarkably induced at lower doses; Induction of nausea and vomiting ([1]; morphine 0.5 mg/kg i.v.): remarkably induced within 5 minutes
C=CCN1CC[C@]23c4c5ccc(O)c4O[C@H]2C(=O)CC[C@@]3(O)[C@H]1C5 [naloxone],–,Anti-emetic effect against nausea and vomiting due to morphine [2]: shows anti-emetic effects
